For assay [1] the following is noted: phase II trial, cited from earlier work.
In a further assay the target is T1, human NK3 receptor (Homo sapiens, UniProt P29371).
T1 construct: expressed in transfected cells; host or cells: HEK293 cells (transient expression), membrane preparation
T1 sequence (P29371 1-465): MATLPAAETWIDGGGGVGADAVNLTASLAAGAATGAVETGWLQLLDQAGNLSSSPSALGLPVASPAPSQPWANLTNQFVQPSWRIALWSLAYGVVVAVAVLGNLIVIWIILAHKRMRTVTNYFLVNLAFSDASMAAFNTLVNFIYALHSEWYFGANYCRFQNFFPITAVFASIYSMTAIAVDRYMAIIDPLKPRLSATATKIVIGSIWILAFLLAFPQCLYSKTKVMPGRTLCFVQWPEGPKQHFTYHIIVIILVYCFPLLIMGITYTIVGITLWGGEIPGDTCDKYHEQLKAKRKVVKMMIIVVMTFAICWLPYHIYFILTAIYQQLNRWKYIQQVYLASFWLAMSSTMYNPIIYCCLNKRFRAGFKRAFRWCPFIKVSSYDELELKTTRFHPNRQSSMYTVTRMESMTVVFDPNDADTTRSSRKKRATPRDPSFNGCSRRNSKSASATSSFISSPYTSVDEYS
As to the kind of experiment: [3H]SR142801 competition binding assay (hNK3 receptor binding). The settings on record: [3H]SR142801 radioligand; membranes from HEK293 cells transiently expressing recombinant human NK3 receptor; Ki by Cheng-Prussoff; read-out: KiNK3 h. Put shortly: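 Competition binding with [3H]SR142801 on membranes of HEK293 cells transiently expressing human NK3, 5 μg protein/well, in Tris-HCl/MnCl2/phosphoramidon/BSA buffer pH 7.4. Nonspecific binding defined with 10 μM SB222200; filtration then scintillation counting. IC50 from Hill fit was converted to Ki by Cheng-Prusoff; duplicate, mean ± SEM.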

pKi: −log10 of the molar value.

Turning to `CC(=O)N(C)C1(c2ccccc2)CCN(CCC[C@]2(c3ccc(Cl)c(Cl)c3)CCCN(C(=O)c3ccccc3)C2)CC1` [SR 142,801, Osanetant], the “activity in the treatment of negative symptoms of schizophrenia” value in assay [1] (negative symptoms (depression, anhedonia, social isolation, memory and attention deficits)) is “inactive”. Further, the “activity on positive symptoms of schizophrenia” value in assay [1] (positive symptoms (altered behaviour, delusion, hallucinations, extreme emotions, excited motor activity, incoherent speech)) is given as “active”.
Regarding `C[C@@H](Oc1ccc(Cl)cn1)[C@@H]1CN(C(=O)c2ccc(N(C)C)cc2)C[C@H]1c1ccc(Cl)c(Cl)c1` (racemic) [Example 13, [(3SR,4RS)-3-[(RS)-1-(5-Chloro-pyridin-2-yloxy)-ethyl]-4-(3,4-dichloro-phenyl)-pyrrolidin-1-yl]-(4-dimethylamino-phenyl)-methanone], the pKi on human NK3 receptor is 7.30.
The same measure, in the same setting: the result for `Cc1cc(C(=O)N2C[C@@H]([C@@H](C)Oc3ccc(Cl)cn3)[C@H](c3ccc(Cl)c(Cl)c3)C2)ccn1` (racemic) [Example 15, [(3SR,4RS)-3-[(RS)-1-(5-Chloro-pyridin-2-yloxy)-ethyl]-4-(3,4-dichloro-phenyl)-pyrrolidin-1-yl]-(2-methyl-pyridin-4-yl)-methanone] reads 8.20.
On to `Cc1cc(C(=O)N2C[C@@H]([C@@H](C)Oc3ccc(Cl)cn3)[C@H](c3ccc(Cl)c(Cl)c3)C2)c(C)o1` (racemic) [Example 28, [(3SR,4RS)-3-[(RS)-1-(5-Chloro-pyridin-2-yloxy)-ethyl]-4-(3,4-dichloro-phenyl)-pyrrolidin-1-yl]-(2,5-dimethyl-furan-3-yl)-methanone], for which, on human NK3 receptor, the pKi is 7.23.
Turning to `Cc1ncc(C(=O)N2C[C@H]([C@H](C)Oc3ccc(C#N)cn3)[C@@H](c3ccc(Cl)c(F)c3)C2)cn1` [Example 91, 6-{(S)-1-[(3R,4S)-4-(4-Chloro-3-fluoro-phenyl)-1-(2-methyl-pyrimidine-5-carbonyl)-pyrrolidin-3-yl]-ethoxy}-nicotinonitrile], the pKi on human NK3 receptor was 7.74.
Take `CCc1noc(-c2ccc(C(=O)N3C[C@H]([C@H](C)Oc4ccc(C#N)cn4)[C@@H](c4ccc(Cl)c(Cl)c4)C3)cc2)n1` (racemic) [Example 62, 6-((SR)-1-{(3RS,4SR)-4-(3,4-Dichloro-phenyl)-1-[4-(3-ethyl-[1,2,4]oxadiazol-5-yl)-benzoyl]-pyrrolidin-3-yl}-ethoxy)-nicotinonitrile]: the pKi at human NK3 receptor is 7.23.
As to `Cc1ncc(C(=O)N2C[C@H]([C@H](C)Oc3ccc(C(F)(F)F)cn3)[C@@H](c3ccc(Cl)c(Cl)c3)C2)cn1` (racemic) [Example 79, {(3SR,4RS)-3-(3,4-Dichloro-phenyl)-4-[(SR)-1-(5-trifluoromethyl-pyridin-2-yloxy)-ethyl]-pyrrolidin-1-yl}-(2-methyl-pyrimidin-5-yl)-methanone], the pKi at human NK3 receptor is 7.57.
For the compound `Cc1ccc(C(=O)N2C[C@@H]([C@@H](C)Oc3ccc(C(F)(F)F)cc3)[C@H](c3ccc(Cl)c(Cl)c3)C2)cn1` (racemic) [Example 6, {(3RS,4SR)-3-(3,4-Dichloro-phenyl)-4-[(RS)-1-(4-trifluoromethyl-phenoxy)-ethyl]-pyrrolidin-1-yl}-(6-methyl-pyridin-3-yl)-methanone], the pKi on human NK3 receptor was 7.20.
Turning to `Cc1ncc(C(=O)N2C[C@H]([C@H](C)Oc3ccc(C#N)cn3)[C@@H](c3ccc(Cl)c(Cl)c3)C2)cn1` (racemic) [Example 57, 6-{(SR)-1-[(3RS,4SR)-4-(3,4-Dichloro-phenyl)-1-(2-methyl-pyrimidine-5-carbonyl)-pyrrolidin-3-yl]-ethoxy}-nicotinonitrile], on human NK3 receptor, the pKi was 7.63.
Same read-out and setting: then `COc1ccc(C(=O)N2C[C@@H]([C@@H](C)Oc3ccc(C#N)cn3)[C@H](c3ccc(Cl)c(Cl)c3)C2)cn1` (racemic) [Example 34, 6-{(RS)-1-[(3SR,4RS)-4-(3,4-Dichloro-phenyl)-1-(6-methoxy-pyridine-3-carbonyl)-pyrrolidin-3-yl]-ethoxy}-nicotinonitrile], with 7.33.
Still for that read-out and setting: the result for `C[C@H](Oc1ccc(C(F)(F)F)cn1)[C@H]1CN(C(=O)c2cnc(C3CC3)nc2)C[C@@H]1c1ccc(Cl)c(Cl)c1` (racemic) [Example 85, (2-Cyclopropyl-pyrimidin-5-yl)-{(3SR,4RS)-3-(3,4-dichloro-phenyl)-4-[(SR)-1-(5-trifluoromethyl-pyridin-2-yloxy)-ethyl]-pyrrolidin-1-yl}-methanone] reads 8.12.
On to `C[C@@H](Oc1ccc(Cl)cn1)[C@@H]1CN(C(=O)c2ccc(CCN3CCCC3)nc2)C[C@H]1c1ccc(Cl)c(Cl)c1` (racemic) [Example 46, [(3SR,4RS)-3-[(RS)-1-(5-Chloro-pyridin-2-yloxy)-ethyl]-4-(3,4-dichloro-phenyl)-pyrrolidin-1-yl]-[6-(2-pyrrolidin-1-yl-ethyl)-pyridin-3-yl]-methanone], for which the pKi on human NK3 receptor is 8.72.
On to “[(3S,4R)-3-[(R)-1-(5-Chloro-pyridin-2-yloxy)-ethyl]-4-(3,4-dichloro-phenyl)-pyrrolidin-1-yl]-(6-methoxy-pyridin-3-yl)-methanone and [(3R,4S)-3-[(S)-1-(5-Chloro-pyridin-2-yloxy)-ethyl]-4-(3,4-dichloro-phenyl)-pyrrolidin-1-yl]-(6-methoxy-pyridin-3-yl)-methanone [Example 21]”, for which, at human NK3 receptor, the pKi is 8.25.
Still for that read-out and setting: the result for `C[C@H](Oc1ccc(C#N)cn1)[C@H]1CN(C(=O)c2ccc(-n3cccn3)nc2)C[C@@H]1c1ccc(Cl)c(Cl)c1` (racemic) [Example 65, 6-{(SR)-1-[(3RS,4SR)-4-(3 ,4-Dichloro-phenyl)-1-(6-pyrazol-1-yl-pyridine-3-carbonyl)-pyrrolidin-3-yl]-ethoxy}-nicotinonitrile] reads 8.59; that for `Cc1ccc(C(=O)N2C[C@@H]([C@@H](C)Oc3ccc(Cl)cn3)[C@H](c3ccc(Cl)c(Cl)c3)C2)cn1` (racemic) [Example 16, [(3SR,4RS)-3-[(RS)-1-(5-Chloro-pyridin-2-yloxy)-ethyl]-4-(3,4-dichloro-phenyl)-pyrrolidin-1-yl]-(6-methyl-pyridin-3-yl)-methanone], 8.04.
The same measure, in the same setting: then `Cc1ncc(C(=O)N2C[C@@H]([C@@H](C)Oc3ccc(Cl)cn3)[C@H](c3ccc(Cl)c(Cl)c3)C2)cn1` (racemic) [Example 17, [(3SR,4RS)-3-[(RS)-1-(5-Chloro-pyridin-2-yloxy)-ethyl]-4-(3,4-dichloro-phenyl)-pyrrolidin-1-yl]-(2-methyl-pyrimidin-5-yl)-methanone], with 7.93.
Take `COc1ccc(C(=O)N2C[C@@H]([C@@H](C)Oc3ncc(F)cn3)[C@H](c3ccc(Cl)c(Cl)c3)C2)cn1` (racemic) [Example 25, {(3RS,4SR)-3-(3,4-Dichloro-phenyl)-4-[(RS)-1-(5-fluoro-pyrimidin-2-yloxy)-ethyl]-pyrrolidin-1-yl}-(6-methoxy-pyridin-3-yl)-methanone]: on human NK3 receptor, the pKi is 7.20.
On to `CC(=O)Nc1ccc(C(=O)N2C[C@@H]([C@@H](C)Oc3ccc(Cl)cn3)[C@@H](c3ccc(Cl)c(Cl)c3)C2)cn1` (racemic) [Example 38], for which the pKi at human NK3 receptor is 7.81.
As to `C[C@H](Oc1ccc(C#N)cn1)[C@H]1CN(C(=O)c2ccc(C(F)(F)F)nc2)C[C@@H]1c1ccc(Cl)c(Cl)c1` (racemic) [Example 72, 6-{(SR)-1-[(3RS,4SR)-4-(3,4-Dichloro-phenyl)-1-(6-trifluoromethyl-pyridine-3-carbonyl)-pyrrolidin-3-yl]-ethoxy}-nicotinonitrile], the pKi at human NK3 receptor is 7.68.
On the same count and under the same terms, then `Cc1cc(C(=O)N2C[C@H]([C@H](C)Oc3ccc(Cl)cn3)[C@@H](c3ccc(F)c(F)c3)C2)cnn1` [Example 104, [(3R,4S)-3-[(S)-1-(5-Chloro-pyridin-2-yloxy)-ethyl]-4-(3,4-difluoro-phenyl)-pyrrolidin-1-yl]-(6-methyl-pyridazin-4-yl)-methanone], with 8.40.
For the compound `CCc1ncc(C(=O)N2C[C@H]([C@H](C)Oc3ccc(C#N)cn3)[C@@H](c3ccc(Cl)c(Cl)c3)C2)cc1C` (racemic) [Example 86, 6-{(SR)-1-[(3RS,4SR)-4-(3,4-Dichloro-phenyl)-1-(6-ethyl-5-methyl-pyridine-3-carbonyl)-pyrrolidin-3-yl]-ethoxy}-nicotinonitrile], the pKi at human NK3 receptor was 8.37.
For the compound `C[C@H](Oc1ccc(C#N)cn1)[C@H]1CN(C(=O)c2ccc(F)nc2)C[C@@H]1c1ccc(Cl)c(Cl)c1` (racemic) [Example 75, 6-{(SR)-1-[(3RS,4SR)-4-(3,4-Dichloro-phenyl)-1-(6-fluoro-pyridine-3-carbonyl)-pyrrolidin-3-yl]-ethoxy}-nicotinonitrile], the pKi on human NK3 receptor was 7.47.
Consider `Cc1noc(-c2ccc(C(=O)N3C[C@H]([C@H](C)Oc4ccc(C(F)(F)F)cn4)[C@@H](c4ccc(Cl)c(Cl)c4)C3)cc2)n1` (racemic) [Example 83, {(3SR,4RS)-3-(3,4-Dichloro-phenyl)-4-[(SR)-1-(5-trifluoromethyl-pyridin-2-yloxy)-ethyl]-pyrrolidin-1-yl}-[4-(3-methyl-[1,2,4]oxadiazol-5-yl)-phenyl]-methanone], for which the pKi at human NK3 receptor is 9.22.

The values above are taken from patent publication US8012998B2, “Pyrrolidine aryl-ether as NK-3 receptor antagonists” (Hoffmann—LA Roche Inc., priority 2007, dated 2011).
